Laboratory results as given in patent US20230398161A1 (priority 2020, published 2023).

How the values were obtained:
[1] = test system: Escherichia coli (E. coli) strain ATCC 700928; test: Urinary tract infection model in C3H/OuJ mice, CK570: E. coli burden (CFU) in tissues; conditions: positive control, IV, all timepoints assessed
Method: The vehicle used in this study was 1×TBS.
C3H/OuJ female mice, aged approximately 8 weeks and weighing 21 to 24 grams, were used in this study. Mice were housed with 1 to 5 animals per cage and were provided food (5P76 Prolab isopro irradiated lab diet) and water ad libitum.
Mice were anesthetized with 1-4% isoflurane in oxygen for 2-3 minutes until a deep plane of anesthesia was achieved, confirmed by toe pinch reflex. Each mouse was then placed on a board, ventral side up, with the nose inserted into a nose cone supplying isoflurane. The lower abdomen was gently massaged to expel any urine in the bladder. […] For IV administration, mice were manually restrained in a restrainer device, and study treatment was administered via the lateral tail vein. A dose volume of 100 μL was used for IV injections. For IU administration, the same method was used as for the original administration of E. coli. A dose volume of 50 μL was used for IU administration.
All CFU data were log-transformed.

[2] = test system: 300-strain clinical isolate panel with an additional 4 strains; test: Host range of CK618 and antibiotics alone and in combination, 304-isolate panel; type: cell-based, E. coli; conditions: antibiotic at concentration printed after name plus CK618
Method: (§1) The first assay used a panel of 88 contemporaneous urinary tract infection (UTI) isolates from North America, Europe, Latin America, and Asia. […] The second assay used a panel made up of a 300-strain clinical isolate panel (Table 14) with an additional 4 strains of interest. […] Four of the same SOC antibiotics tested against the 88-isolate panel were tested against this panel. The non-SOC antibiotics were not included due to their limited use in clinical settings, and nitrofurantoin was not included due to the low probability of resistance to this drug.
(§2) For both isolate panels, antibiotic concentrations tested were determined by using Clinical and Laboratory Standards Institute (CLSI) or European Committee on Antimicrobial Susceptibility Testing (EUCAST) breakpoints at concentrations that kill susceptible isolates but allow intermediate or resistant isolates to grow in the standard AST microdilution assay (Table 17).
(§3) The cocktail was then mixed with bacteria to obtain final titers of 1×10^6 plaque-forming unit (PFU)/mL/phage for the cocktail and 1×10^5 colony-forming unit (CFU)/mL for the bacteria, resulting in a multiplicity of infection (MOI) of 10 for each phage in a sample. […] Reactions were incubated at 37° C. with shaking and OD measurements were taken each hour for 20 hours.

[3] = test system: 88 contemporaneous urinary tract infection (UTI) isolates; type: cell-based, E. coli; conditions: both isolate panels, Tables 18, 19
Method: as §1, §2, §3

| Molecule | bacterial burden in each tissue [1] | Host range % on all strains (n = 304), Combination: Antibiotic + LBP-CK618 [2] [%] | host range on MDR and beta-lactam-resistant strains compared with all strains (in words) [3] | host range performance on all strains (in words) [3] |
| --- | --- | --- | --- | --- |
| O=C(O)c1cn(C2CC2)c2cc(N3CCNCC3)c(F)cc2c1=O [Ciprofloxacin] | significantly reduced bacterial burden to the LOD |  |  |  |
| C[C@@H]1O[C@@H]1P(=O)(O)O [Fosfomycin] |  | 97.0 | performed similarly regardless of antibiotic resistance status | strong activity across all strains |
| Trimethoprim/Sulfamethoxazole [TMP/SXT] |  | 81.9 |  |  |
